Values of other authors in patent publication US4374828A, “Biologically active thymones from the thymus” (Board of Reagents, The University of Texas System, priority 1980, dated 1983).

How the values were obtained:
[1] = system: cells which had a B-lineage; details: in vitro
[2] = system: murine prothymocytes; details: in vitro
[3] = system: marrow cells
[4] = system: spleen cells of old mice

## (H) Arg^32 -Lys^33 -Asp^34 -Val^35 -Tyr^36 -OH [pentapeptide]
[1]
  Differential induction of B-lineage cells (in words): inhibited, in vitro, the differential induction of cells which had a B-lineage
[2]
  Differentiation of prothymocytes to thymocytes (in words): induced, in vitro, differentiation of murine prothymocytes to thymocytes

## NH2 -Ser-Glu-Phe-Leu-Glu^5 -Asp-Pro-Ser-Val-Leu^10 -Thr-Lys-Glu-Lys-Leu^15 -Lys-Ser-Glu-Leu-Val^20 -Ala-Asn-Val-Thr^25 -Leu-Pro-Ala-Gly-Glu^30 -Gln-Arg-Lys-Asp-Val^35 -Tyr-Val-Gln-Leu-Tyr^40 -Leu-Gln-Thr-Leu-Thr^45 -Ala-Val-Lys-Arg^49 -COOH (H-SEFLEDPSVLTKEKLKSELVANVTLPAGEQRKDVYVQLYLQTLTAVKR-OH) [thymin II, polypeptide of bovine thymin, renamed thymopoietin II]
[3]
  Induction of marrow cells (in words): induce marrow cells to develop as intrathymic lymphocytes

## thymopoietin: a preparation of thymopoietin
[4]
  Immune function of spleen cells (in words): increased the immune function of the spleen cells of old mice
